Data: patent publication US9464061B2, “N-hydroxylamino-barbituric acid derivatives” (priority 2014, dated 2016)
Marks after values point to notes of the source that are not given here.

Assays:
[1] = reported in WO 2013/059194; cited from earlier work
[2] = pH 7.4
[3] = pH 7.4; remark: listed apart in the source
[4] = UV-vis method for pKa determination of compound 4 (Example 20); assay type: physicochemical; conditions: 0.10 M phosphate buffer, 25° C., read-out: pKa (ring nitrogen proton)
Method: A 1 mM solution of compound 4 is prepared in acetonitrile. To a cuvette containing 3.0 mL of 0.10 M phosphate buffer of the desired pH at 25° C. is added 50 μL of the compound 4 solution. The solution is mixed quickly by rapidly drawing up and dispensing the solution with a pipette. Absorbance spectra are collected immediately after the solution has mixed and settled.

physchem [5] = conditions: buffer, pH 7.4
physchem [6] = conditions: buffer, pH 7.4; remark: listed apart in the source

CCC1(NO)C(=O)N(C)C(=O)N(C)C1=O [5-ethyl HABA, 5-(N-hydroxylamine)-5-ethyl-N,N-dimethylbarbituric acid]
HNO production [1]: less than the desired amount of HNO

CN1C(=O)N(C)C(=O)C(Cc2ccccc2)(NO)C1=O [Compound 1, 5-(N-hydroxylamino)-5-benzyl-N,N-dimethylbarbituric acid]
k (rate of appearance of BA byproduct, single exponential fit) [2]: 0.00015 s⁻¹
HNO yield [3]: 99^d
k (rate of disappearance of compound and appearance of BA byproduct, single exponential fit) [3]: 0.00031 s⁻¹
melting point: 155 to 157 °C

COc1ccc(CC2(NO)C(=O)N(C)C(=O)N(C)C2=O)cc1 [Compound 2, 5-(N-hydroxylamino)-5-(4-methoxybenzyl)-N,N-dimethylbarbituric acid]
k (rate of appearance of BA byproduct, single exponential fit) [2]: 8e-05 s⁻¹
HNO yield [3]: 96^d
k (rate of disappearance of compound and appearance of BA byproduct, single exponential fit) [3]: 0.00015 s⁻¹
melting point: 108 to 110 °C

CN1C(=O)N(C)C(=O)C(Cc2ccc(Cl)cc2)(NO)C1=O [Compound 3, 5-(N-hydroxylamino)-5-(4-chlorobenzyl)-N,N-dimethylbarbituric acid]
k (rate of appearance of BA byproduct, single exponential fit) [2]: 0.00025 s⁻¹
HNO yield [3]: 92^d
k (rate of disappearance of compound and appearance of BA byproduct, single exponential fit) [3]: 0.0006 s⁻¹
melting point: 155 to 157 °C

CCC1(NO)C(=O)NC(=O)NC1=O [Compound 4, 5-(N-hydroxylamino)-5-ethyl-barbituric acid]
pKa [4]: ~7.4
k (rate of appearance of BA byproduct, single exponential fit) [2]: 3.7e-05 s⁻¹
HNO yield [3]: 97^d
k (rate of disappearance of compound and appearance of BA byproduct, single exponential fit) [3]: 0.00011 s⁻¹
melting point: > 300 °C

O=C1NC(=O)C(Cc2ccccc2)(NO)C(=O)N1 [Compound 5, 5-(N-hydroxylamino)-5-benzyl-barbituric acid]
k (rate of appearance of BA byproduct, single exponential fit) [2]: 0.00013 s⁻¹
half-life (physchem [5]): 92 min

COc1ccc(CC2(NO)C(=O)NC(=O)NC2=O)cc1 [Compound 6, 5-(N-hydroxylamino)-5-(4-methoxybenzyl)-barbituric acid]
k (rate of appearance of BA byproduct, single exponential fit) [2]: 8.8e-05 s⁻¹
half-life (physchem [5]): 132 min

O=C1NC(=O)C(Cc2ccc(Cl)cc2)(NO)C(=O)N1 [Compound 7, 5-(N-hydroxylamino)-5-(4-chlorobenzyl)-barbituric acid]
k (rate of appearance of BA byproduct, single exponential fit) [2]: 0.00016 s⁻¹
half-life (physchem [5]): 71 min

O=C1NC(=O)C(NO)(c2ccccc2)C(=O)N1 [Compound 8, 5-(N-hydroxylamino)-5-phenyl-barbituric acid]
k (rate of appearance of BA byproduct, single exponential fit) [2]: 0.00082 s⁻¹
half-life (physchem [5]): 14 min

C=CCC1(NO)C(=O)NC(=O)NC1=O [Compound 9, 5-(N-hydroxylamino)-5-(2-propen-1-yl)-barbituric acid]
k (rate of appearance of BA byproduct, single exponential fit) [2]: 0.00013 s⁻¹
half-life (physchem [5]): 90 min

CC(C)CC1(NO)C(=O)NC(=O)NC1=O [Compound 10, 5-(N-hydroxylamino)-5-(2-methylpropyl)-barbituric acid]
k (rate of appearance of BA byproduct, single exponential fit) [2]: 0.0005 s⁻¹
half-life (physchem [5]): 23 min

CC(C)C1(NO)C(=O)NC(=O)NC1=O [Compound 11, 5-(N-hydroxylamino)-5-(1-methylethyl)-barbituric acid]
HNO yield [3]: 98
k (rate of disappearance of compound and appearance of BA byproduct, single exponential fit) [3]: 3.1e-06 s⁻¹
half-life (physchem [6]): 3750 min

CCCC(C)C1(NO)C(=O)NC(=O)NC1=O (stereo not drawn) [Compound 12, 5-(N-hydroxylamino)-5-(1-methylbutyl)-barbituric acid]
HNO yield [3]: 102
k (rate of disappearance of compound and appearance of BA byproduct, single exponential fit) [3]: 5e-06 s⁻¹
half-life (physchem [6]): 2310 min

O=C1NC(=O)C(Cc2ccccc2Cl)(NO)C(=O)N1 [Compound 14, 5-(N-hydroxylamino)-5-(2-chlorobenzyl)-barbituric acid]
k (rate of appearance of BA byproduct, single exponential fit) [2]: 0.00029 s⁻¹
half-life (physchem [5]): 41 min

O=C1NC(=O)C(Cc2cccs2)(NO)C(=O)N1 [Compound 16, 5-(N-hydroxylamino)-5-(2-thienylmethyl)-barbituric acid]
k (rate of appearance of BA byproduct, single exponential fit) [2]: 0.00029 s⁻¹
half-life (physchem [5]): 40 min

CC1(NO)C(=O)NC(=O)NC1=O [Compound 17, 5-(N-hydroxylamino)-5-methyl-barbituric acid]
k (rate of appearance of BA byproduct, single exponential fit) [2]: 0.00025 s⁻¹
half-life (physchem [5]): 46 min

CCC(C)C1(NO)C(=O)NC(=O)NC1=O (stereo not drawn) [Compound 18, 5-(N-hydroxylamino)-5-(1-methylpropyl)-barbituric acid]
HNO yield [3]: 102
k (rate of disappearance of compound and appearance of BA byproduct, single exponential fit) [3]: 5.9e-06 s⁻¹
half-life (physchem [6]): 1970 min
